Laboratory results reported in US20260193602A1, “CULTURE MEDIUM COMPOSITION” (AJINOMOTO CO., INC., priority 2023, published 2026).

Key:
[1] = test system: HEK293 (Viral Production Cells 2.0) producing AAV8; assay: Production of AAV in HEK293 in suspension culture system (AAV8 genome titer by real-time PCR, viral particles by ELISA, full capsid ratio); assay type: cell-based, human
[2] = test system: HEK293 2.sus producing Human adenovirus 32; conditions: Example 6; CDM4HEK293 with or without β-alanine; MOI 0.1
Experimental: The entire volume is placed in a 50 ml tube, 29 mL of glutamine-containing 293 SFM II is added thereto and the cells are suspended. 5 mL of the cell suspension is placed in a Petri dish and culturing with shaking (50 rpm) is performed in a CO2 incubator (temperature setting: 37° C., CO2 concentration: 5%, model: MCO-170AICUV-PJ, Panasonic Healthcare Co., Ltd.) for 2-3 days. • (4) After culturing, the culture solution is recovered and transferred to a 15 mL centrifuge tube. • (5) Centrifugation is performed for 5 min (1000 rpm, 190×g, 24° C.) and the supernatant is removed. • (6) 1 ML of glutamine-containing 293 SFM II is added to the 15 mL centrifuge tube and the cells are resuspended. The cell number is measured using a hemocytometer and glutamine-containing 293 SFM II is added to 3×10^5 cells/mL. […] The cell number is measured using a hemocytometer and the culture solution is added to 3×10^5 cells/mL. […]

Structure (SMILES) | AAV8 genome titer (relative) ([1]; Example 4, spermidine trihydrochloride final concentration 30 μM or 100 μM, FIG. 6) | full capsid ratio (relative) ([1]; Example 4, spermidine trihydrochloride final concentration 30 μM or 100 μM, FIG. 7) | AAV8 genome titer (relative) ([1]; Example 5, spermidine trihydrochloride 200 μM alone, FIG. 8) | AAV8 genome titer (relative) ([1]; Example 1, β-alanine final concentration 100 μM, vs medium without β-alanine = 100%, FIG. 1) | full capsid ratio (relative) ([1]; Example 1, β-alanine final concentration 100 μM, vs medium without β-alanine = 100%, FIG. 2) | AAV8 genome titer (relative) ([1]; Example 2, β-alanine final concentration 100 μM, FIG. 3) | AAV8 genome titer (relative) ([1]; Example 2, β-alanine final concentration 300 μM, FIG. 3) | virus count (capsid count (relative)) ([1]; Example 3, β-alanine final concentration 300 μM, FIG. 4) | full capsid ratio (relative) ([1]; Example 3, β-alanine final concentration 300 μM, FIG. 5) | AAV8 genome titer (relative) ([1]; Example 5, β-alanine 300 μM alone, FIG. 8) | adenovirus titer [2]
Cl.Cl.Cl.NCCCCNCCCN [spermidine trihydrochloride] | improvements | improvements | improved |  |  |  |  |  |  |  | 
NCCC(=O)O [β-alanine] |  |  |  | improvements | improvements | improvement | improvement | increase | improvement | improved | Improvement
